According to patent US20100203033A1, “Kits, formulations and solutions having enzymatically- permissive amounts of visualization agents and uses thereof” (priority 2007, published 2010):
Values belong to the molecule of their own block, whether it stands above or below them.

Tests used:
[1] = biological target: T1, thrombin (Homo sapiens, UniProt P00734); assay: Drop test model: migration length of fibrin sealant on a slanted surface (clotting kinetics); format: biochemical; parameters: 5 ml of a thrombin solution 5 folds diluted (final: 200 IU/ml)
Protocol: (§1) Human thrombin was mixed with different dyes to final dye concentrations of 0.005-0.2%. The influence of dyes on clotting kinetics was tested using the drop test model. Briefly, measurements of fibrin clotting kinetics were performed on an inclined plane in a device powered by a Nitrogen pressure of 7×10^5 Pa. In each experiment 5 ml of Biological Active Component (BAC) and 5 ml of a thrombin solution 5 folds diluted (final: 200 IU/ml) (in 40 mM CaCl2) were pumped into a separate syringe. […] These two solutions were released (about ⅛ of each) simultaneously, and a mixed drop falls onto a slanted surface. The drop leaks down the slope until a clot is formed. The distance traveled by the drops was recorded on a millimetric paper sheet placed on the slanted surface. […] The migration lengths of the fibrin sealant with the different formulations are listed below in Table 2.

[2] = biological target: T1, thrombin; assay: Drop test model after freeze and thaw (F&T) of dyed thrombin; format: biochemical; parameters: 5 ml of a thrombin solution 5 folds diluted (final: 200 IU/ml)
Protocol: as §1
Human thrombin was formulated with methylene blue, crystal violet, bromothymol blue or riboflavin at final concentrations of 0.005-0.1%. The different formulations were fast frozen to −35° C. and then thawed. The effect of the freeze and thaw procedure on thrombin clotting activity was evaluated using the drop test model (migration time assay as in Example 2).

[3] = biological target: T1, thrombin; assay: Thrombin clotting activity of dyed thrombin formulations (modified European Pharmacopeia Assay 0903/1997); format: biochemical; parameters: measuring thrombin clotting activity in the different formulations
Protocol: The present study was aimed to determine the effect of dye addition to the fibrin glue formulation on thrombin activity. […] The compatibility of the dyes with thrombin was tested by measuring thrombin clotting activity in the different formulations according to the following modified, European Pharmacopeia Assay (0903/1997), procedure.
(§2) Briefly, standard solution of thrombin (4, 6, 8 and 10 IU/ml) or the test sample were incubated for 2 minutes at 30° C. Then 40 μl thrombin solution of each solution were mixed with 160 μl fibrinogen solution (0.1%; Enzyme research; cat No FIB1 2800L) and clotting time was measured. A calibration curve of log clotting times vs. log thrombin concentration was plotted using the standards. Thrombin activity in the different formulations was determined by the clotting time obtained (calculated automatically by a clotting machine, interpolated from the calibration curve and multiplied by the dilution factor).

[4] = biological target: T1, thrombin; assay: Thrombin clotting activity of dyed thrombin with or without exposure to day light; format: biochemical; parameters: measuring thrombin clotting activity in the different formulations; conditions: 0.02% dye in thrombin solution, uncovered, 6 hours day light
Protocol: as §2
In the adhesion prevention indications the dye may be added to the thrombin component prior to mixing it with BAC. The present experiment was carried out to assess the effect of visualization agent addition to thrombin solution on thrombin clotting activity. Two dyes were evaluated: Indigo Carmine (IC) and Methylene Blue (MB). […] The effect of the dyes on thrombin activity with or without exposure to day light was assessed. The thrombin clotting activity was measured as indicated above in Example 1. […] The samples were mixed with the same fibrinogen solution and the thrombin activity was calculated from the calibration curve. […]
Thrombin activity and the color intensity (OD of IC at 610 nm and of MB at 663 nm) were measured at TO and after exposure to day light for 6 hours. […]

[5] = Solubility of indigo carmine in thrombin solution by visual inspection; format: physicochemical
Protocol: The present example was aimed to determine the maximal solubility of indigo carmine in the thrombin component of the fibrin sealant. Thrombin final container (Omrix, 1,000 IU/ml, 5 ml) was mixed with 1% indigo carmine (dissolved in purified water) to a final concentration of 0.2, 0.21, 0.22, 0.25 or 0.3 mg/ml. The prepared solutions were mixed on a roller for 30 min at room temperature and the solubility limit of the dye was determined by visual inspection.

[6] = dye concentration within the thrombin component 0.005%
[7] = dye concentration within the thrombin component 0.01%
[8] = dye concentration within the thrombin component 0.02%
[9] = dye 0.005% in thrombin component
[10] = dye concentration within the thrombin component 0.1%
[11] = dye concentration within the thrombin component 0.2%
[12] = dye concentration within the thrombin component 0.05%

Migration length [1, 6]: 11.5 cm
Migration length [1, 7]: 13.3 cm
Migration length [1, 8]: 22.9 cm
Migration length [2, 9]: 19.8 cm
Compound: Cc1cc2nc3c(=O)[nH]c(=O)nc-3n(C[C@H](O)[C@H](O)[C@H](O)CO)c2cc1C [Riboflavin]

Migration length [1, 10]: 10.7 cm
Migration length [1, 11]: 14.3 cm
Migration length ([2]; dye 0.1% in thrombin component): 8.4 cm
Recovered activity [3, 7]: 92%
Thrombin Activity [3, 7]: 1018 IU/ml
Recovered activity [3, 12]: 97%
Thrombin Activity [3, 12]: 1070 IU/ml
Recovered activity [3, 10]: 90%
Thrombin Activity [3, 10]: 991 IU/ml
Recovered activity [3, 11]: 89%
Thrombin Activity [3, 11]: 978 IU/ml
reduction in thrombin activity [4]: about 50%
Compound: CN(C)c1ccc2nc3ccc(=[N+](C)C)cc-3sc2c1 [Methylene Blue]

effect of storage at 2-8 °C ([5]; 0.02% indigo carmine dyed thrombin solution, about 30 min at 2-8 °C): sedimentation
effect of incubation at room temperature after refrigeration ([5]; 0.02% indigo carmine dyed thrombin solution, after over night incubation at 2-8 °C): re-dissolution of the particulate sample
result of visual inspection above the solubility limit ([5]; 0.21, 0.22, 0.25 and 0.3 mg/ml in thrombin solution): aggregate formation
concentration at which complete dissolution of the sample was obtained ([5]; thrombin final container 1,000 IU/ml, 30 min on roller at room temperature): 200 µg/mL
Compound: O=C1/C(=C2\Nc3ccc(S(=O)(=O)O)cc3C2=O)Nc2ccc(S(=O)(=O)O)cc21 [indigo carmine, Indigotindisulfonate sodium]

The remaining lines, values behind:

Compound: CN(C)c1ccc(N=Nc2ccc(S(=O)(=O)[O-])cc2)cc1.[Na+] [Methyl Orange, Methyl Orange Sodium Salt]
Migration length [1, 6]: 8.26 cm
Migration length [1, 7]: 7.6 cm

Compound: CN(C)c1ccc(C(=C2C=CC(=[N+](C)C)C=C2)c2ccc(N(C)C)cc2)cc1 [Crystal Violet]
Migration length [1, 6]: 12.1 cm
Migration length [1, 7]: 23.9 cm
Migration length [1, 12]: >25 cm
Migration length [2, 9]: 16.3 cm
Recovered activity [3, 7]: 106%
Thrombin Activity [3, 7]: 1125 IU/ml
Recovered activity [3, 12]: 94%
Thrombin Activity [3, 12]: 995 IU/ml
Recovered activity [3, 10]: 49%
Thrombin Activity [3, 10]: 516 IU/ml
Recovered activity [3, 11]: 22%
Thrombin Activity [3, 11]: 234 IU/ml

Compound: CN(C)c1ccc(/N=N/c2ccccc2C(=O)O)cc1 [Methyl Red, Methyl red]
Migration length ([1]; dye dilution 01:26): 12.4 cm
Migration length ([1]; dye dilution 01:51): 10.2 cm

Compound: Cc1c(C2(c3cc(C(C)C)c(O)c(Br)c3C)OS(=O)(=O)c3ccccc32)cc(C(C)C)c(O)c1Br [Bromothymol Blue]
Migration length [1, 7]: 9.7 cm
Migration length [1, 8]: 11.9 cm
Migration length ([2]; dye 0.02% in thrombin component): >25 cm
